From PMC4514675, “Novel Apo E-Derived ABCA1 Agonist Peptide (CS-6253) Promotes Reverse Cholesterol Transport and Induces Formation of preβ-1 HDL In Vitro” (PLoS ONE, 2015)

How the values were obtained:
BHK-mock cells = assay: Cholesterol efflux from BHK-mock cells to acceptor in human plasma; assay type: cell-based, hamster
Procedure: We investigated cholesterol efflux from BHK cells after adding lipid free CS-6253 to media cell culture or to human EDTA-plasma which had been stored at -80°C. BHK overexpressing human ABCA1 were labeled with 2 μCi/ml ^3H-free cholesterol (Perkin Elmer, Norwalk, Connecticut) for 24 h. Afterward, BHK-ABCA1 were stimulated with 10 nmol/l mifepristone for 18–20 h (13). Cells were incubated with various doses of acceptor in media for 4 h at 37°C. Alternatively, plasma samples were first pre-incubated for 5 min at 37°C in plasma at mole ratios (10:1 or 1:1 relative to plasma apo A-I). To obtain the HDL fraction, apoB lipoproteins were precipitated from plasma by polyethylene glycol (PEG). Also, increased doses of lipid free CS-6253 and nHDL-CS-6253 were tested for cholesterol efflux after incubation with human plasma for optimum 1h at 37°C. ^3[H]-cholesterol loaded BHK cells expressing ABCA1 were incubated with 2.8% apoB depleted plasma samples [19] for 4 h for the efflux assays. Lipid free apo A-I and nHDL-apo A-I were used as control, nHDL-CS-6253 and nHDL-apo A-I were generated after incubation with BHK cells expressing ABCA1. […]
Fig 7 Dose dependent effects of pre-incubation of plasma with lipid free CS-6253, or nHDL-CS-6253 on ABCA1 cholesterol efflux. […] Isolated HDL fractions by PEG were separated by 2D-PAGGE and HDL subpopulations were detected by apo A-I Western blot. […]

[1] = system: BHK cells expressing ABCA1; assay: Nascent HDL particle formation, 2D-PAGGE; assay type: cell-based, hamster; conditions: 0.96 μM
Procedure: Apo A-I and CS-6253-containing particles were separated according to charge (agarose, horizontal axis) and size (polyacrylamide gradient, 3% to 20% gel, vertical axis) as previously described. Apo A-I-containing particles were detected by incubating the membranes with immunopurified polyclonal anti-apo A-I antibody (Biodesign). The nHDL-CS-6253 containing particles were detected with immunopurified polyclonal anti-CS-6253 antibody (Biosynthesis Inc., Lewisville, TX). The anti-CS-6253 is a purified rabbit IgG polyclonal antibody specifically produced by Biosynthesis Inc. It is. Cross reactivity of this antibody was verified by Nondenaturing gradient gel electrophoresis (ND-PAGGE) 5% to 35% [24]. The anti-CS-6253 antibody recognizes only CS-6253 peptide in plasma; neither apo A-I nor apo E were detected by this antibody after separation by gradient gel electrophoresis respectively (Fig 1A, 1B and 1C). High molecular weight protein mixture (GE Healthcare, UK) was run as a standard on each gel.
Next, we investigated the nature of CS-6253-containing particles released in the medium from stimulated ABCA1 cells. Cells were first incubated in 100 mm diameter dishes with either (0.96 μM) apo A-I or CS-6253 in 8 ml of DMEM for 45 min and 6 h at 37°C. These two time points were selected based on our previous work on HDL biogenesis. Lipid free apo A-I or CS-6253 incubated in cell free system media under same conditions were used as control for 2D-PAGGE analysis. Apo A-I or CS-6253-containing particles were separated and analyzed by 2D-PAGGE. […] Both the charge and size of these nascent particles were stable over a 6h incubation period.
Fig 5 Time course ability of CS-6253 to generate nHDL-mimetic like particles. (A and B): nHDL-CS-6253 and nHDL-apo A-I released to the medium at specific time points (45 min and 6 h) from BHK cells expressing ABCA1 were analyzed by 2D-PAGGE. […] Molecular markers are indicated.

ABCA1 = ABCA1 (Homo sapiens, UniProt O95477); assay: ABCA1-mediated phospholipid efflux from BHK-ABCA1 cells; assay type: cell-based; design: expressed in transfected cells; host or cells: BHK cells, stably transfected, induced with 10 nM mifepristone; conditions: mean of triplicates ± SD, n = 3
Sequence of ABCA1 (O95477 whole entry): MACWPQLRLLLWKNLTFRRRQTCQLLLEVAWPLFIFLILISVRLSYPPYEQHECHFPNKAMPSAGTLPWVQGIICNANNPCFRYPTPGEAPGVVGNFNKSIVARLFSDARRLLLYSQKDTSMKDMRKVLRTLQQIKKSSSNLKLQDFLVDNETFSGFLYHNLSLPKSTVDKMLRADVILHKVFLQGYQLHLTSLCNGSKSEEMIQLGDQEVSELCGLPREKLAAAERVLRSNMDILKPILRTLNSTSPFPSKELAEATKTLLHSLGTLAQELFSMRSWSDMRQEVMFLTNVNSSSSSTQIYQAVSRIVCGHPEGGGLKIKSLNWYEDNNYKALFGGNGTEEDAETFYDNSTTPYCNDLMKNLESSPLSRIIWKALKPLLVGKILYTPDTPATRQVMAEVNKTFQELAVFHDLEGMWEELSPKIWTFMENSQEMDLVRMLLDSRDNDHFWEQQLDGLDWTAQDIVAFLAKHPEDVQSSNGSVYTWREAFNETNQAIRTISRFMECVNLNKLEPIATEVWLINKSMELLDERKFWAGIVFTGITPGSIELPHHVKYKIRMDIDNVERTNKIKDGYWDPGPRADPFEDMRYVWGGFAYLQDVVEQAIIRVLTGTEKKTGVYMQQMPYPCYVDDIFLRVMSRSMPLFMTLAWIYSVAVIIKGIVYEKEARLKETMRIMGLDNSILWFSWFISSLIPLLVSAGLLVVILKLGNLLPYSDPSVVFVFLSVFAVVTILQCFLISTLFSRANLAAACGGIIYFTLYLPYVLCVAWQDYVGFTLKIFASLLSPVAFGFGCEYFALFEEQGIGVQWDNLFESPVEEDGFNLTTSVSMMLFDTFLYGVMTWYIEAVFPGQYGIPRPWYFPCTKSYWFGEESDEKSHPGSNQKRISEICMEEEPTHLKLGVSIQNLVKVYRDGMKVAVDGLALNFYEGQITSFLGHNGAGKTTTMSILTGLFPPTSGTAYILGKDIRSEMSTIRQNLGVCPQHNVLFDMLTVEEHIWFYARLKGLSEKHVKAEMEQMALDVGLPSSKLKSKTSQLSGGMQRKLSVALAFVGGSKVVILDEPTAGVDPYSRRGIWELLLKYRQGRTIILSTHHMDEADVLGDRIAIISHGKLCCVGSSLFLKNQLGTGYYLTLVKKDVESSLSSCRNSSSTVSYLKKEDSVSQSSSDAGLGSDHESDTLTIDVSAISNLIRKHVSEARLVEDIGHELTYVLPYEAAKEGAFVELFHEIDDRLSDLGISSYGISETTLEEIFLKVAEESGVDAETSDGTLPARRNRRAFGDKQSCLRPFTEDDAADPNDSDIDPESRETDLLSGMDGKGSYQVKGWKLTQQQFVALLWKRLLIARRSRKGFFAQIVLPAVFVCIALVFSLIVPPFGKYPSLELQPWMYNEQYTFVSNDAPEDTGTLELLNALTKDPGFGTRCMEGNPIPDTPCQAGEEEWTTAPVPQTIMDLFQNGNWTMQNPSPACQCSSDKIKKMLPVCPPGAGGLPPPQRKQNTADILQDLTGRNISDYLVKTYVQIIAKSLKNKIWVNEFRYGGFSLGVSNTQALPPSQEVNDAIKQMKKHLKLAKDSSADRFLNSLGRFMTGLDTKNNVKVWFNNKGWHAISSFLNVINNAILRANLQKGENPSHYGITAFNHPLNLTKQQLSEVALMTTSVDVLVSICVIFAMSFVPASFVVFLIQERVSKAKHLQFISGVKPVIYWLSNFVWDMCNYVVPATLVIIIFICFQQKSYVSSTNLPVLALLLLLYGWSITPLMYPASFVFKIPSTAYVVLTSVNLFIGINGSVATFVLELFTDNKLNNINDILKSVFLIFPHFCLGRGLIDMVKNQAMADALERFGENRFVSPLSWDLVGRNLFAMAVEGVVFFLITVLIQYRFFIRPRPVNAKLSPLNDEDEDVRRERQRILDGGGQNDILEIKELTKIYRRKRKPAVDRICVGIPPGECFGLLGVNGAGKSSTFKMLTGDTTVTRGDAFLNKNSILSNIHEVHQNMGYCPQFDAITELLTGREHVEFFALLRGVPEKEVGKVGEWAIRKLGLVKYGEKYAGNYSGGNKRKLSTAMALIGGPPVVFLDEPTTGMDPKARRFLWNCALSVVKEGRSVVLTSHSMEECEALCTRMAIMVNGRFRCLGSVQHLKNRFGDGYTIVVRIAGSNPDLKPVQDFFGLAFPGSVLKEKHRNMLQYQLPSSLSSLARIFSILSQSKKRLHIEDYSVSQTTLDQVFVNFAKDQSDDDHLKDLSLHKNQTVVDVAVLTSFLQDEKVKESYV
Procedure: Supplementary file pone.0131997.s003.tif: S2 Fig Phospholipid efflux from BHK cells expressing ABCA1 to increasing concentrations of lipid free CS-6253 and apo A-I. Baby hamster kidney (BHK) cells were labeled with ^3[H]-choline. ABCA1 expression was induced by treating BHK cells with 10 nM mifepristone. Cells were then changed into fresh DMEM medium [no apolipoprotein A-I (apoA-I)] and incubated with apoA-I or CS-6253 (0.96 uM). Medium was collected after 2 h. […] Results represent the mean of triplicates ± SD, n = 3. (TIF) Click here for additional data file.
Cells were seeded (50×10^3 cells) in 24 well plates containing DMEM plus 10% FBS with 3 μCi/ml ^3H-choline chloride (Perkin Elmer, Norwalk, Connecticut), for 72 hours as previously reported with minor changes). Cells were then put into induction medium for 18–20 h (10 nM mifepristone). This was followed by incubation with increased molar doses of apo A-I and CS-6253 for 2 h at 37°C. Efflux medium was collected, and cellular lipids were extracted with hexane/isopropanol (3:2 v/v), while total phospholipids from the medium were extracted in chloroform /methanol (2:1 v/v). Efflux was determined as percent of total ^3[H] Phospholipids in the medium. All results were conformed at least twice. (S2 Fig.)

Substance: apolipoprotein A-I [apo A-I]
- maximum efflux capacity, BHK-mock (BHK-mock cells; acceptor in human plasma): similar
- Vmax, cholesterol efflux, BHK-mock (BHK-mock cells; acceptor in human plasma 1 h, 37°C): 0.30±0.15 % efflux/6h
- electrophoretic mobility of released particles ([1]; 45 min or 6 h, BHK-ABCA1): α-electrophoretic mobility
- electrophoretic mobility, incubated without cells ([1]; cell free media): pre-β electrophoretic mobility
- molecular diameter, incubated without cells ([1]; lipid free, cell free media, pre-β mobility): 7.1 nm
- Km (ABCA1; 2 h): 0.14 ± 0.02 µM
- Km, phospholipid efflux (ABCA1; 2 h): 3.65 ± 0.49 µg/mL
- Vmax, phospholipid efflux (ABCA1): 0.77±0.02 % efflux/2h
